Assay results reported in patent publication US8574551B2, “Compositions useful for reducing nephrotoxicity and methods of use thereof” (Verrow Pharmaceuticals, Inc., priority 2005, dated 2013).

Assays:
Format in all cases: in vivo, C57BL/6 mice
kidney [1] = test: Acyclovir induced nephrotoxicity in mildly renal compromised mice; settings: acyclovir 10 or 30 mg/kg IV, 10 consecutive days, alone
Description: These doses however, produce nephrotoxicity in humans. Therefore, the nephroprotective effects of sulfobutylether β cyclodextrin (SBEβCD) in mildly renal compromised mice was evaluated. […] In order to produce mildly renal compromised mice, animals were injected with L-NAME (L arginine methyl ester) 10 mg/kg and Indomethacin 10 mg/kg, ip., 15-20 min before the first injection of acyclovir. Female C57BL/6 mice were administered bolus intravenous injections for ten consecutive days with a dose of 10 mg/kg acyclovir (N=3) or acyclovir 10 mg/kg+SBEβCD 173 mg/kg (N=3), or 30 mg/kg acyclovir (N=3) or acyclovir 30 mg/kg+SBEβCD 520 mg/kg (N=3) (Table 6). In both cases the acyclovir to SBEβCD molar ratio was 1:2. Animals were sacrificed after 48 hrs after the last injection. Renal pathology was assessed by evaluating H&E sections of the kidney under a light microscope. Paraffin sections of […] were cut and stained with H&E and periodic acid Schiff (PAS). They were examined by light microscopy and scored in a blinded fashion. Five arbitratary fields at 40× magnification in each sections was assessed according to the below mentioned parameters and scored according to the criteria mentioned.

kidney [2] = test: Iohexyl induced nephrotoxicity in mildly renal compromised mice; settings: iohexyl 1.5 g/kg iv once, alone, 24 hrs
Description: Iohexyl is nephrotoxic in humans and can produce acute renal failure in renally compromised patients. Therefore, the nephroprotective effects of sulfobutyl ethyl β cyclodextrin (SBE-βCD) in a contrast agent induced nephropathy model involving mildly renal compromised mice was evaluated. […] In order to produce mildly renal compromised mice, female C57BL/6 mice were injected with nitric oxide synthase inhibitor L-NAME (L arginine methyl ester) 10 mg/kg and prostaglandin synthesis inhibitor Indomethacin 10 mg/kg, ip., 15-20 min before injecting of iohexyl. The mice were administered a single bolus intravenous injections of iohexyl 1.5 g/kg (N=4) or iohexyl 1.5 g/kg+SBE-βCD 1.3 g/kg (N=4), or iohexyl 1.5 g/kg+SBE-βCD […] administered 30 minutes before, concurrently, and 30 min after iohexyl injection (N=4) (Table 7). In both cases, the iohexyl to SBE-βCD molar ratio was 1:0.1 during the concurrent dose. […] Renal pathology was assessed by evaluating H&E sections of the kidney under a light microscope.
Paraffin sections of […] were cut and stained with H&E and periodic acid Schiff (PAS). They were examined by light microscopy and scored in a blinded fashion. At 40× magnification, five arbitrary fields in each section was assessed for the below mentioned parameters and scored blindly according to the criteria mentioned. A total of 4 sections were analyzed per kidney.

kidney [3] = test: Doxorubicin induced nephrotoxicity model in mice; settings: doxorubicin 10 mg/kg single iv dose; 72 hours
Description: Female C57BL/6 mice were injected intravenously with a single dose of (10 mg/kg) doxorubicin. The mice were sacrificed after 72 hours. The development of glumerular and tubulointerstitial injury after doxorubicin and doxorubicin+Captisol was evaluated by means of renal histology. Paraffin sections of […] were cut and stained with H&E and periodic acid Schiff (PAS). They were examined by light microscopy and scored in a blinded fashion. Thirty glomeruli and neighboring tubules were scored at superficial cortes (near the surface of the capsule). One hundred glomeruli and neighboring tubules were scored at the level of deep renal cortex and around the outer strips of the outer medulla.

kidney [4] = test: Gentamicin induced nephrotoxicity in mice; settings: 10 consecutive days
Description: These doses however, produce nephrotoxicity in humans. Therefore, nephroprotective effects of SBE-βCD in mildly renal compromised mice was evaluated. […] In order to produce mildly renal compromised mice, animals were injected with L-NAME (L arginine methyl ester) 10 mg/kg and Indomethacin 10 mg/kg, ip., 15-20 min before the first injection of gentamicin. Female C57BL/6 mice were administered bolus intravenous injections for ten consecutive days with a dose of 4.0 mg/kg gentamicin (N=4) or gentamicin 4.0 mg/kg+SBE-βCD 19.2 mg/kg (N=4), or gentamicin 4.0 mg/kg+SBE-βCD 38.4 mg/kg (N=4). Gentamicin to SBE-βCD molar ratios were 1:1 and 1:2 respectively. Animals were sacrificed after 48 hrs after the last injection. Renal pathology was assessed by evaluating H&E sections of the kidney under light microscope.
Paraffin sections of […] were cut and stained with H&E and periodic acid Schiff (PAS). They were examined by light microscopy and scored in a blinded fashion. Five arbitrary fields at 40× magnification in each sections was assessed for the below mentioned parameters and scored according to the criteria mentioned

Question: How did the renal histology (kidney [1]) turn out when `Nc1nc2c(ncn2COCCO)c(=O)[nH]1` [Acyclovir, acyclovir] was run?
Answer: The renal histology was “moderate to severe signs of tubulopathy”.

Question: For `CC(=O)N(CC(O)CO)c1c(I)c(C(=O)NCC(O)CO)c(I)c(C(=O)NCC(O)CO)c1I` (centres unmarked) [Iohexyl, iohexyl], which renal histology (kidney [2]) is on record?
Answer: Its renal histology is “moderate to severe signs of tubulopathy”.

Question: `COc1cccc2c1C(=O)c1c(O)c3c(c(O)c1C2=O)C[C@@](O)(C(=O)CO)C[C@@H]3O[C@H]1C[C@H](N)[C@H](O)[C@H](C)O1` [doxorubicin] was tested. Which renal histology (kidney [3]) did it give?
Answer: The renal histology was “tubular casts, abundant dilated tubules and moderate loss of brush border in the some proximal tubules”.

Question: Which results are given for gentamicin?
Answer: renal histology (kidney [4]; healthy mice, gentamicin 4 mg/kg intravenously): no noticeable changes in the tubular cells in the healthy kidney; renal histology (kidney [4]; mild renal compromised mice (L-NAME + Indomethacin), gentamicin 4 mg/kg iv): extensive tubular vacuolization and necrosis in the renal cortex
